Measurements reported in ChEMBL document CHEMBL6153087, “Emoquine-1: A Hybrid Molecule Efficient against Multidrug-Resistant Plasmodium Parasites, Including the Artemisinin-Resistant Quiescent Stage, and Also Active In Vivo” (J Med Chem, 2025).
Activity calls are given as the source filed them. No cut-off for these calls is given here.

Key:
[1] = test system: Plasmodium falciparum; test: Antiplasmodial activity against artemisinin-resistant Plasmodium falciparum F32 assessed as inhibition of parasite growth incubated for 48 hrs of SYBR green fluorescence-based method; assay type: functional, organism-based; conditions: F32, 48 h
[2] = test system: Plasmodium falciparum; test: Antiplasmodial activity against artemisinin-sensitive Plasmodium falciparum F32 assessed as inhibition of parasite growth incubated for 48 hrs of SYBR green fluorescence-based method; assay type: functional, organism-based; conditions: F32, 48 h
[3] = test system: Plasmodium falciparum; test: Antiplasmodial activity against chloroquine-resistant Plasmodium falciparum clinical isolate IPC8262 assessed as inhibition of parasite growth incubated for 48 hrs of SYBR green fluorescence-based method; assay type: functional, organism-based
[4] = test system: Plasmodium falciparum; test: Antiplasmodial activity against chloroquine-resistant Plasmodium falciparum clinical isolate IPC8461 assessed as inhibition of parasite growth incubated for 48 hrs of SYBR green fluorescence-based method; assay type: functional, organism-based
[5] = test system: Plasmodium falciparum; test: Antiplasmodial activity against atovaquone-resistant Plasmodium falciparum clinical isolate Q120 assessed as inhibition of parasite growth incubated for 48 hrs of SYBR green fluorescence-based method; assay type: functional, organism-based
[6] = Cytotoxicity against African green monkey Vero cells assessed as cell metabolic activity incubated for 48 hrs by MTT assay; assay type: toxicity, cell-based; conditions: chlorocebus sabaeus
[7] = Selectivity index, ratio of CC50 for cytotoxicity against African green monkey Vero cells to IC50 for antiplasmodial activity against artemisinin-resistant Plasmodium falciparum F32; assay type: toxicity, cell-based; conditions: read-out: Ratio CC50/IC50
[8] = test system: Plasmodium falciparum; test: Antiplasmodial activity against synchronized ring stage artemisinin-resistant Plasmodium falciparum F32 assessed as number of days required to reach 3% initial parasitemia by measuring median recrudescence time at 0.5 uM incubated for 48 hrs by recrudescence assay; assay type: functional
[9] = test system: Plasmodium falciparum; test: Antiplasmodial activity against synchronized ring stage artemisinin-sensitive Plasmodium falciparum F32 assessed as number of days required to reach 3% initial parasitemia by measuring median recrudescence time at 1 uM incubated for 48 hrs by recrudescence assay; assay type: functional
[10] = test system: Plasmodium falciparum; test: Antiplasmodial activity against synchronized ring stage artemisinin-sensitive Plasmodium falciparum F32 assessed as number of days required to reach 3% initial parasitemia by measuring median recrudescence time at 0.5 uM incubated for 48 hrs by recrudescence assay; assay type: functional
[11] = test system: Plasmodium falciparum; test: Antiplasmodial activity against synchronized ring stage DHA-induced quiescent artemisinin-resistant Plasmodium falciparum F32 assessed as decrease in parasite recrudescence by measuring time required for parasites to reach initial parasitemia at 1 uM pretreated with dihydroartemisinin for 6 hrs followed by compound administration for 48 hrs in presence of dihydroartemisinin by quiescent-stage survival assay; assay type: functional
[12] = test system: Plasmodium vinckei petteri; test: Antiplasmodial activity Plasmodium vinckei petteri infected in female Swiss mouse model assessed as reduction in parasitemia at 0.1 mg/kg/day, ip administered for 4 days starting from 4 hrs post infection and measured on day 5 by giemsa staining based analysis; assay type: functional, organism-based; conditions: time 5.0 day
[13] = test system: Plasmodium vinckei petteri; test: Antiplasmodial activity Plasmodium vinckei petteri infected in female Swiss mouse model assessed as reduction in parasitemia at 1 mg/kg/day, ip administered for 4 days starting from 4 hrs post infection and measured on day 5 by giemsa staining based analysis relative to control; assay type: functional; set-up: scale not given: the % may be the effect or the level left; conditions: time 5 day
[14] = test system: Plasmodium vinckei petteri; test: Antiplasmodial activity Plasmodium vinckei petteri infected in female Swiss mouse model assessed as reduction in parasitemia at 10 mg/kg/day, ip administered for 4 days starting from 4 hrs post infection and measured on day 5 by giemsa staining based analysis; assay type: functional, organism-based; conditions: time 5.0 day
[15] = test system: Plasmodium vinckei petteri; test: Antiplasmodial activity Plasmodium vinckei petteri infected in female Swiss mouse model assessed as reduction in parasitemia at 10 mg/kg/day, ip administered for 4 days starting from 4 hrs post infection and measured on day 30 by giemsa staining based analysis; assay type: functional, organism-based; conditions: time 30.0 day
[16] = test system: Plasmodium vinckei petteri; test: Antiplasmodial activity Plasmodium vinckei petteri infected in female Swiss mouse model assessed as reduction in parasitemia administered intraperitoneally for 4 days starting from 4 hrs post infection and measured on day 30; assay type: functional; conditions: 720 h, route ip, time 30 day
[17] = Toxicity in female Swiss mouse model infected with Plasmodium vinckei petteri assessed as clinical signs at 0.1 to 10 mg/kg/day, ip administered for 4 days and measured after 30 days; assay type: organism-based; conditions: in vivo, 720 h, dose 0.1-10 mg/kg/day, time 30 day
[18] = test system: Plasmodium vinckei petteri; test: Antiplasmodial activity Plasmodium vinckei petteri infected in female Swiss mouse model assessed as reduction in parasitemia at 25 mg/kg/day, po administered for 4 days starting from 4 hrs post infection and measured on day 5 by giemsa staining based analysis relative to control; assay type: functional; set-up: scale not given: the % may be the effect or the level left; conditions: time 5 day
[19] = test system: Plasmodium vinckei petteri; test: Antiplasmodial activity Plasmodium vinckei petteri infected in female Swiss mouse model assessed as reduction in parasitemia administered orally for 4 days starting from 4 hrs post infection and measured on day 30; assay type: functional; conditions: 720 h, route po, time 30 day
[20] = test system: Heme; test: Inhibition of heme polymerization in acetate buffer at pH 5 assessed as reduction in beta-hematin formation at 1.2 molar ratio of drug to hemin incubated for 18 hrs by infrared spectroscopic analysis relative to control
[21] = Stability in human plasma assessed as parent compound remaining at 1 uM measured after 2 hrs by LC-MS/MS analysis; assay type: ADME, cell-free; conditions: read-out: Stability
[22] = Thermal stability at 60 degreeC incubated for 2 months; assay type: physicochemical; conditions: 1460 h
[23] = test system: Plasmodium falciparum; test: Antiplasmodial activity against synchronized ring stage artemisinin-resistant Plasmodium falciparum F32 assessed as number of days required to reach 3% initial parasitemia by measuring median recrudescence time at 18 uM incubated for 48 hrs by recrudescence assay; assay type: functional
[24] = test system: Plasmodium falciparum; test: Antiplasmodial activity against synchronized ring stage artemisinin-sensitive Plasmodium falciparum F32 assessed as number of days required to reach 3% initial parasitemia by measuring median recrudescence time at 18 uM incubated for 48 hrs by recrudescence assay; assay type: functional
[25] = test system: Plasmodium vinckei petteri; test: Antiplasmodial activity Plasmodium vinckei petteri infected in female Swiss albino mouse model assessed as reduction in parasitemia administered intraperitoneally for 4 days and measured on day 5; assay type: functional; conditions: 120 h, route ip, time 5 day
[26] = test system: Plasmodium vinckei petteri; test: Antiplasmodial activity Plasmodium vinckei petteri infected in female Swiss albino mouse model assessed as reduction in parasitemia administered orally for 4 days and measured on day 5; assay type: functional; conditions: 120 h, route po, time 5 day
[27] = test system: Plasmodium falciparum; test: Antiplasmodial activity against synchronized ring stage artemisinin-resistant Plasmodium falciparum F32 assessed as number of days required to reach 3% initial parasitemia by measuring median recrudescence time at 1 uM incubated for 48 hrs by recrudescence assay; assay type: functional
[28] = test system: Heme; test: Inhibition of heme polymerization in acetate buffer at pH 5 assessed as reduction in beta-hematin formation at 2.0 molequiv incubated for 18 hrs by infrared spectroscopic analysis relative to control
[29] = Metabolic stability in human liver microsomes at 1 uM measured after 1 hrs by LC-MS/MS analysis; assay type: ADME, Microsome
[30] = Metabolic stability in human liver microsomes assessed as half-life at 1 uM measured after 1 hrs by LC-MS/MS analysis; assay type: ADME, Microsome
[31] = test system: Plasmodium falciparum; test: Antiplasmodial activity against synchronized ring stage DHA-induced quiescent artemisinin-resistant Plasmodium falciparum F32 assessed as decrease in parasite recrudescence at 1 uM pretreated with dihydroartemisinin for 6 hrs followed by compound administration for 48 hrs in presence of dihydroartemisinin by quiescent-stage survival assay; assay type: functional, organism-based
[32] = test system: Heme; test: Inhibition of heme polymerization in acetate buffer at pH 5 assessed as reduction in beta-hematin formation at 10 molequiv incubated for 18 hrs by infrared spectroscopic analysis
[33] = test system: Heme; test: Inhibition of heme polymerization in acetate buffer at pH 5 assessed as reduction in beta-hematin formation at 15 equiv incubated for 18 hrs by infrared spectroscopic analysis relative to control
[34] = Inhibition of recombinant Plasmodium falciparum 3D7 FIKK8 by enzyme-coupled assay
[35] = test system: Plasmodium falciparum; test: Antiplasmodial activity against Plasmodium falciparum; assay type: functional, organism-based
[36] = test system: Heme; test: Inhibition of heme polymerization in acetate buffer at pH 5 assessed as reduction in beta-hematin formation at 5 equiv incubated for 18 hrs by infrared spectroscopic analysis relative to control
[37] = test system: Plasmodium falciparum; test: Antiplasmodial activity against synchronized ring stage artemisinin-resistant Plasmodium falciparum F32 assessed as decrease in parasite recrudescence by measuring time required for parasites to reach initial parasitemia at 200 nM incubated for 48 hrs by recrudescence assay; assay type: functional
[38] = test system: Plasmodium falciparum; test: Antiplasmodial activity against synchronized ring stage DHA-induced quiescent artemisinin-resistant Plasmodium falciparum F32 assessed as decrease in parasite recrudescence by measuring time required for parasites to reach initial parasitemia at 200 nM pretreated with dihydroartemisinin for 6 hrs followed by compound administration for 48 hrs in presence of dihydroartemisinin by quiescent-stage survival assay; assay type: functional
[39] = test system: Plasmodium falciparum; test: Antiplasmodial activity against synchronized ring stage artemisinin-resistant Plasmodium falciparum F32 assessed as number of days required to reach 3% initial parasitemia by measuring median recrudescence time at 7 uM incubated for 48 hrs by recrudescence assay; assay type: functional
[40] = test system: Plasmodium falciparum; test: Antiplasmodial activity against synchronized ring stage artemisinin-sensitive Plasmodium falciparum F32 assessed as number of days required to reach 3% initial parasitemia by measuring median recrudescence time at 7 uM incubated for 48 hrs by recrudescence assay; assay type: functional
[41] = test system: Plasmodium falciparum; test: Antiplasmodial activity against synchronized ring stage artemisinin-resistant Plasmodium falciparum F32 assessed as decrease in parasite recrudescence by measuring time required for parasites to reach initial parasitemia at 1 uM incubated for 48 hrs by recrudescence assay; assay type: functional
[42] = test system: Plasmodium falciparum; test: Antiplasmodial activity against synchronized ring stage artemisinin-resistant Plasmodium falciparum F32 assessed as decrease in parasite recrudescence by measuring time required for parasites to reach initial parasitemia at […] incubated for 54 hrs by recrudescence assay; assay type: functional

Structure (SMILES) | IC50 [1] [nM] | IC50 [2] [nM] | IC50 [3] [nM] | IC50 [4] [nM] | IC50 [5] [nM] | CC50 at 48 h [6] [nM] | selectivity ratio [7] | further results
Cc1cc(O)c2c(c1)C(=O)c1cc(OCCOCCNCCNc3ccnc4cc(Cl)ccc34)cc(O)c1C2=O | 54 | 59 | 33 | 84 | 24 | 12000 | 222 | Time [8]: 23 days; Time [9]: >30 days; Time [10]: 26 days; Time [11]: >22 days; Activity [12]: inactive; Activity [13]: 17%; Activity [14]: Not active; No Detectable Parasitemia Observed; Activity [15]: Active; Recrudescence Not Observed; ED50 [16]: 4 mg/kg/day; Activity [17]: Non-toxic; Activity [18]: 44%; ED50 [19]: ~25 mg/kg/day; inhibition [20]: 100%; remaining at 2 h, 1 µM [21]: 100%; Stability [22]: Stable
C[C@@H]1CC[C@H]2[C@@H](C)C(=O)O[C@@H]3O[C@@]4(C)CC[C@@H]1[C@]32OO4 [ARTEMISININ] | – | – | – | – | – | – | – | Time [23]: 10 days; Time [24]: 15 days; ED50 [25]: 4 mg/kg/day; ED50 [26]: 17 mg/kg/day
Clc1ccc([C@@H](c2ccccc2)N2CCN(CCNc3ccnc4cc(Cl)ccc34)CC2)cc1 | 101 | 75 | 33 | 53 | 9000 | 14000 | 140 | Time [27]: 12 days; Time [9]: 11 days; Time [11]: 7 days; inhibition [28]: 100%; remaining at 2 h, 1 µM [21]: 100%; Stability [29]: Stable; half-life at 1 µM [30]: 46 min; Stability [22]: Stable
Clc1ccc([C@@H](c2ccccc2)N2CCNCC2)cc1 | > 10000 | 6000 | – | – | 9000 | 20000 | < 2 | Activity [31]: inactive; inhibition [28]: inactive; inhibition [32]: inactive
Cc1cc(O)c2c(c1)C(=O)c1cc(OCCOCCN3CCN(c4ccnc5cc(Cl)ccc45)CC3)cc(O)c1C2=O | 825 | – | – | – | – | 12000 | 15 | –
Cc1cc(O)c2c(c1)C(=O)c1cc(OCCN3CCN(c4ccnc5cc(Cl)ccc45)CC3)cc(O)c1C2=O | 775 | – | – | – | – | > 10000 | > 13 | –
Clc1ccc2c(N3CCNCC3)ccnc2c1 | 1310 | 1400 | – | – | – | – | – | –
NCCNc1ccnc2cc(Cl)ccc12 | 54 | 28 | 134 | 354 | 2300 | > 50000 | > 925 | inhibition [33]: 100%; Activity [31]: inactive; inhibition [28]: inactive; inhibition [32]: inactive
Cc1cc(O)c2c(c1)C(=O)c1cc(O)cc(O)c1C2=O [EMODIN] | > 50000 | – | – | – | – | 34000 | < 0.7 | IC50 [34]: 2000 nM; IC50 [35]: > 10000 nM
CCOCCOc1cc(O)c2c(c1)C(=O)c1cc(C)cc(O)c1C2=O | > 10000 | > 10000 | – | – | – | – | – | Activity [31]: inactive; inhibition [36]: 100%
CCN(CC)CCCC(C)Nc1ccnc2cc(Cl)ccc12 (configuration not stated) [CHLOROQUINE] | – | – | – | – | – | > 50000 | – | Time [37]: >20 days; Time [38]: 8 days
O=C1C(O)=C([C@H]2CC[C@H](c3ccc(Cl)cc3)CC2)C(=O)c2ccccc21 [ATOVAQUONE] | 1.9 | – | 0.7 | 1 | 4700 | 7000 | 3700 | Time [39]: 16 days; Time [40]: 13 days; Time [41]: 14 days; Time [11]: 20 days
C[C@H]1[C@@H](O)O[C@@H]2O[C@@]3(C)CC[C@H]4[C@H](C)CC[C@@H]1[C@@]24OO3 [ARTENIMOL] | – | 2.2 | 2.5 | 2.6 | 2.4 | 30000 | 12000 | Time [42]: 8 days
